Test results reported in US11021493B2, “1,4-thiazine dioxide and 1,2,4-thiadiazine dioxide derivatives as beta-secretase inhibitors and methods of use” (AMGEN INC., priority 2016, dated 2021).

Legend:
[1] = biological target: human recombinant BACE2 (Homo sapiens (Human), UniProt Q9Y5Z0); assay: In vitro enzymatic BACE2 FRET assay; assay type: biochemical; details: read-out: BACE2 Enzyme IC50
[2] = biological target: T1, BACE1 (Homo sapiens (Human), UniProt P56817); assay: In vitro BACE1 cell-based assay (Aβ40 in conditioned medium of cells stably expressing APP, HTRF); details: Aβ40 in conditioned media after 24 h incubation
Target sequence in this assay (P56817 46-501, species assumed): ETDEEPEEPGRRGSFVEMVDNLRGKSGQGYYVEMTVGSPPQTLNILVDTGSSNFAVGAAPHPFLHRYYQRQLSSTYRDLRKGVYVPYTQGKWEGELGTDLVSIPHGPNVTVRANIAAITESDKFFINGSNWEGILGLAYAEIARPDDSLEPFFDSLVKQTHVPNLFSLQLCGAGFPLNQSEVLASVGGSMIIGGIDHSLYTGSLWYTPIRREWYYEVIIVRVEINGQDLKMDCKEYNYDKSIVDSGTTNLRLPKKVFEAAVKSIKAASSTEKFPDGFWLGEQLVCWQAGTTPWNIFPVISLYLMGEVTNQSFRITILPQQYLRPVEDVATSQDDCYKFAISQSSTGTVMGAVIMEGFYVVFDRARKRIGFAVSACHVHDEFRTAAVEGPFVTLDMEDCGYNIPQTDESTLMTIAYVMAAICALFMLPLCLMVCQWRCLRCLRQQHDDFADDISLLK

[3] = biological target: Cathepsin D (CatD) (Homo sapiens (Human), UniProt P07339); assay: In vitro enzymatic Cathepsin D (CatD) FRET assay; assay type: biochemical; details: read-out: Cat D Enzyme IC50
[4] = biological target: T1, BACE1; assay: In vitro enzymatic BACE1 FRET assay; assay type: biochemical; details: read-out: BACE1 Enzyme IC50
Target sequence in this assay (P56817 46-501): as the sequence (P56817 46-501, species assumed) above

Sequence of human recombinant BACE2 (Q9Y5Z0 63-518): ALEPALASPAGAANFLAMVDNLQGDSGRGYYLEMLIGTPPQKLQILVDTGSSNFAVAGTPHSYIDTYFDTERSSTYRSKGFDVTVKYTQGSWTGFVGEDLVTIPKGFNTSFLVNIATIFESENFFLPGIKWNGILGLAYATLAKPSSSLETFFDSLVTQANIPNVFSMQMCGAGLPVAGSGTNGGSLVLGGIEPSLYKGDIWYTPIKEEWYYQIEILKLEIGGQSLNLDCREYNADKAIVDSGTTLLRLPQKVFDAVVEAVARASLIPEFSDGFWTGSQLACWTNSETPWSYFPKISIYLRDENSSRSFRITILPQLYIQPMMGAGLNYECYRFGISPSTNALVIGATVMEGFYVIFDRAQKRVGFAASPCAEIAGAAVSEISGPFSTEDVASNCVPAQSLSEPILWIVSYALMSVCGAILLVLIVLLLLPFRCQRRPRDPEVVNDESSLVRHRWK
Sequence of Cathepsin D (CatD) (P07339 65-412, species assumed): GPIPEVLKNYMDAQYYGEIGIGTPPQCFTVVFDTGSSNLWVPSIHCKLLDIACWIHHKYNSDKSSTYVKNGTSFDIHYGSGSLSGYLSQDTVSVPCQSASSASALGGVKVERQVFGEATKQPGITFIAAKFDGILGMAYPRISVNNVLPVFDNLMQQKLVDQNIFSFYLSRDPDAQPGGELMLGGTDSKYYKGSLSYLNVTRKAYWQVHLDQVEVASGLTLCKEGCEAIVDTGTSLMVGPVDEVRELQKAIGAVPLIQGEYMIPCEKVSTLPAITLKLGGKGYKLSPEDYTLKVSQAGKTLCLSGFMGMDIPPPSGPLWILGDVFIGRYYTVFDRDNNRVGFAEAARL

C#C[C@@H](CC)Oc1cnc(/C(F)=C/c2ccc(F)c([C@]3(C)CS(=O)(=O)C(C)(C)C(N)=N3)c2)cn1 (single isomer, unassigned) [Example 177]
IC50 [1]: 101 nM | IC50 [2]: 600 nM | IC50 [3]: 61400 nM | IC50 [4]: 208 nM

C#C[C@H](CC)Oc1cnc(/C(F)=C/c2ccc(F)c([C@]3(C)CS(=O)(=O)C(C)(C)C(N)=N3)c2)cn1 (single isomer, unassigned) [Example 178]
IC50 [1]: 232 nM | IC50 [2]: 22 nM | IC50 [3]: 77600 nM | IC50 [4]: 3 nM

CC#C[C@@H](CC)Oc1cnc(/C(F)=C/c2ccc(F)c([C@]3(C)CS(=O)(=O)C(C)(C)C(N)=N3)c2)cn1 (single isomer, unassigned) [Example 198]
IC50 [1]: 371 nM | IC50 [2]: 173 nM | IC50 [3]: 38300 nM | IC50 [4]: 113 nM

CC#C[C@H](CC)Oc1cnc(/C(F)=C/c2ccc(F)c([C@]3(C)CS(=O)(=O)C(C)(C)C(N)=N3)c2)cn1 (single isomer, unassigned) [Example 199]
IC50 [1]: 102 nM | IC50 [2]: 2 nM | IC50 [3]: 51200 nM | IC50 [4]: 4 nM

CC#C[C@@H](C)Oc1cnc(/C(F)=C/c2ccc(F)c([C@]3(C)CS(=O)(=O)C(C)(C)C(N)=N3)c2)cn1 (single isomer, unassigned) [Example 207]
IC50 [1]: 519 nM | IC50 [2]: 2530 nM | IC50 [3]: 57500 nM | IC50 [4]: 507 nM

CC#C[C@H](C)Oc1cnc(/C(F)=C/c2ccc(F)c([C@]3(C)CS(=O)(=O)C(C)(C)C(N)=N3)c2)cn1 (single isomer, unassigned) [Example 208]
IC50 [1]: 107 nM | IC50 [2]: 5 nM | IC50 [3]: 79500 nM | IC50 [4]: 1 nM

CC1(C)C(N)=N[C@](C)(c2cc(/C=C(\F)c3cc4c(cn3)OCCO4)ccc2F)[C@@H](F)S1(=O)=O (single isomer, unassigned) [Example 213]
IC50 [1]: 683 nM | IC50 [2]: 3580 nM | IC50 [3]: 172000 nM | IC50 [4]: 626 nM

CC1(C)C(N)=N[C@](C)(c2cc(/C=C(\F)c3cc4c(cn3)OCCO4)ccc2F)[C@H](F)S1(=O)=O (single isomer, unassigned) [Example 214]
IC50 [1]: 851 nM | IC50 [2]: 5940 nM | IC50 [3]: 303000 nM | IC50 [4]: 225 nM

CCC#C[C@@H](C)Oc1cnc(/C(F)=C/c2ccc(F)c([C@]3(C)CS(=O)(=O)C(C)(C)C(N)=N3)c2)cn1 (single isomer, unassigned) [Example 216]
IC50 [1]: 364 nM | IC50 [2]: 5360 nM | IC50 [3]: 29900 nM | IC50 [4]: 628 nM

CCC#C[C@H](C)Oc1cnc(/C(F)=C/c2ccc(F)c([C@]3(C)CS(=O)(=O)C(C)(C)C(N)=N3)c2)cn1 (single isomer, unassigned) [Example 217]
IC50 [1]: 233 nM | IC50 [2]: 288 nM | IC50 [3]: 26800 nM | IC50 [4]: 9 nM

C[C@]1(c2cc(/C=C(\F)c3ccc(C#N)cn3)ccc2F)N=C(N)C2(CF)CC[C@@H]1S2(=O)=O (stereo in doubt) [Example 102, 6-((Z)-2-(3-((1S,2R,5R)-4-amino-5-(fluoromethyl)-2-methyl-8,8-dioxido-8-thia-3-azabicyclo[3.2.1]oct-3-en-2-yl)-4-fluorophenyl)-1-fluorovinyl)nicotinonitrile]
IC50 [1]: 32 nM | IC50 [2]: 17 nM | IC50 [3]: > 133000 nM | IC50 [4]: 5 nM

C[C@@]1(c2cc(/C=C(\F)c3ccc(Cl)cn3)ccc2F)CS(=O)(=O)C2(CCC2)C(N)=N1 [Example 100, (R,Z)-9-amino-7-(5-(2-(5-chloropyridin-2-yl)-2-fluorovinyl)-2-fluorophenyl)-7-methyl-5-thia-8-azaspiro[3.5]non-8-ene 5,5-dioxide]
IC50 [1]: 7 nM | IC50 [2]: 472 nM | IC50 [3]: 91000 nM | IC50 [4]: 10 nM

C[C@@]1(c2cc(/C=C(\F)c3ccc(C#N)cn3)ccc2F)CS(=O)(=O)C2(CCC2)C(N)=N1 [Example 103, (R,Z)-6-(2-(3-(9-amino-7-methyl-5,5-dioxido-5-thia-8-azaspiro[3.5]non-8-en-7-yl)-4-fluorophenyl)-1-fluorovinyl)nicotinonitrile]
IC50 [1]: 50 nM | IC50 [2]: 39 nM | IC50 [3]: 94700 nM | IC50 [4]: 3 nM

CN1C(N)=N[C@](C)(c2cc(/C=C(\F)c3ccc(Cl)cn3)ccc2F)CS1(=O)=O [Example 104, (R,Z)-3-amino-5-(5-(2-(5-chloropyridin-2-yl)-2-fluorovinyl)-2-fluorophenyl)-2,5-dimethyl-5,6-dihydro-2H-1,2,4-thiadiazine 1,1-dioxide]
IC50 [1]: 2 nM | IC50 [2]: 24 nM | IC50 [3]: 95000 nM | IC50 [4]: 3 nM

CN1C(N)=N[C@](C)(c2cc(/C=C(\F)c3ccc(Br)cn3)cc(F)c2F)CS1(=O)=O [Example 105, (R,Z)-3-amino-5-(5-(2-(5-bromopyridin-2-yl)-2-fluorovinyl)-2,3-difluorophenyl)-2,5-dimethyl-5,6-dihydro-2H-1,2,4-thiadiazine 1,1-dioxide]
IC50 [1]: 9 nM | IC50 [2]: 23 nM | IC50 [3]: 35800 nM | IC50 [4]: 12 nM

CN1C(N)=N[C@](C)(c2cc(/C=C(\F)c3ccc(C#N)cn3)ccc2F)CS1(=O)=O [Example 106, (R,Z)-6-(2-(3-(3-amino-2,5-dimethyl-1,1-dioxido-5,6-dihydro-2H-1,2,4-thiadiazin-5-yl)-4-fluorophenyl)-1-fluorovinyl)nicotinonitrile]
IC50 [1]: 31 nM | IC50 [2]: 2 nM | IC50 [3]: 182000 nM | IC50 [4]: 1 nM

CN1C(N)=N[C@](C)(c2cc(/C=C(\F)c3ccc(C#N)cn3)cc(F)c2F)CS1(=O)=O [Example 107, (R,Z)-6-(2-(3-(3-amino-2,5-dimethyl-1,1-dioxido-5,6-dihydro-2H-1,2,4-thiadiazin-5-yl)-4,5-difluorophenyl)-1-fluorovinyl)nicotinonitrile]
IC50 [1]: 25 nM | IC50 [2]: 3 nM | IC50 [3]: 81800 nM | IC50 [4]: 3 nM

C#CCOc1cnc(/C(F)=C/c2ccc(F)c([C@@]3(C)N=C(N)[C@@]4(CF)CC[C@@H]3S4(=O)=O)c2)cn1 [Example 108, (1R,4R,5S)-2-amino-4-(2-fluoro-5-((Z)-2-fluoro-2-(5-(prop-2-yn-1-yloxy)pyrazin-2-yl)vinyl)phenyl)-1-(fluoromethyl)-4-methyl-8-thia-3-azabicyclo[3.2.1]oct-2-ene 8,8-dioxide]
IC50 [1]: 57 nM | IC50 [2]: 6 nM | IC50 [3]: 145000 nM | IC50 [4]: 3 nM

C[C@]1(c2cc(/C=C(\F)c3cnc(OCC(F)(F)F)cn3)ccc2F)N=C(N)[C@@]2(CF)CC[C@@H]1S2(=O)=O [Example 109, (1R,4R,5S)-2-amino-4-(2-fluoro-5-((Z)-2-fluoro-2-(5-(2,2,2-trifluoroethoxy)pyrazin-2-yl)vinyl)phenyl)-1-(fluoromethyl)-4-methyl-8-thia-3-azabicyclo[3.2.1]oct-2-ene 8,8-dioxide]
IC50 [1]: 167 nM | IC50 [2]: 227 nM | IC50 [3]: 135000 nM | IC50 [4]: 28 nM

CN1C(N)=N[C@](C)(c2cc(/C=C(\F)C3CCOCC3)cc(F)c2F)CS1(=O)=O [Example 110, (R,Z)-3-amino-5-(2,3-difluoro-5-(2-fluoro-2-(tetrahydro-2H-pyran-4-yl)vinyl)phenyl)-2,5-dimethyl-5,6-dihydro-2H-1,2,4-thiadiazine 1,1-dioxide]
IC50 [1]: 963 nM | IC50 [2]: 631 nM | IC50 [3]: 194000 nM | IC50 [4]: 709 nM

CN1C(N)=N[C@](C)(c2cc(/C=C(\F)c3cnc(Cl)cn3)ccc2F)CS1(=O)=O [Example 111, (R,Z)-3-amino-5-(5-(2-(5-chloropyrazin-2-yl)-2-fluorovinyl)-2-fluorophenyl)-2,5-dimethyl-5,6-dihydro-2H-1,2,4-thiadiazine 1,1-dioxide]
IC50 [1]: 5 nM | IC50 [2]: 6 nM | IC50 [3]: 86300 nM | IC50 [4]: 7 nM

CC1(C)C(N)=N[C@](C)(c2cc(/C=C(\F)c3ccc(C#N)cn3)ccc2F)CS1(=O)=O [Example 113, (R,Z)-6-(2-(3-(5-amino-3,6,6-trimethyl-1,1-dioxido-3,6-dihydro-2H-1,4-thiazin-3-yl)-4-fluorophenyl)-1-fluorovinyl)nicotinonitrile]
IC50 [1]: 9 nM | IC50 [2]: 4 nM | IC50 [3]: 100000 nM | IC50 [4]: 2 nM

CC1(C)C(N)=N[C@](C)(c2cc(/C=C(\F)c3ccc(Cl)cn3)ccc2F)CS1(=O)=O [Example 114, (R,Z)-5-amino-3-(5-(2-(5-chloropyridin-2-yl)-2-fluorovinyl)-2-fluorophenyl)-3,6,6-trimethyl-3,6-dihydro-2H-1,4-thiazine 1,1-dioxide]
IC50 [1]: 3 nM | IC50 [2]: 80 nM | IC50 [3]: 115000 nM | IC50 [4]: 9 nM

Cc1noc(COc2cnc(/C(F)=C/c3ccc(F)c([C@@]4(C)N=C(N)[C@@]5(CF)CC[C@@H]4S5(=O)=O)c3)cn2)n1 [Example 115, (1R,4R,5S)-2-amino-4-(2-fluoro-5-((Z)-2-fluoro-2-(5-((3-methyl-1,2,4-oxadiazazol-5-yl)methoxy)pyrazin-2-yl)vinyl)phenyl)-1-(fluoromethyl)-4-methyl-8-thia-3-azabicyclo[3.2.1]oct-2-ene 8,8-dioxide]
IC50 [1]: 192 nM | IC50 [2]: 27 nM | IC50 [3]: 102000 nM | IC50 [4]: 22 nM

CN1C(N)=N[C@](C)(c2cc(/C=C(\F)c3cnc(OCC(F)(F)F)cn3)ccc2F)CS1(=O)=O [Example 117, (R,Z)-3-amino-5-(2-fluoro-5-(2-fluoro-2-(5-(2,2,2-trifluoroethoxy)pyrazin-2-yl)vinyl)phenyl)-2,5-dimethyl-5,6-dihydro-2H-1,2,4-thiadiazine 1,1-dioxide]
IC50 [1]: 186 nM | IC50 [2]: 148 nM | IC50 [3]: 29100 nM | IC50 [4]: 23 nM

C[C@]1(c2cc(/C=C(\F)c3cnc(OCC4CC4)cn3)ccc2F)N=C(N)[C@@]2(CF)CC[C@@H]1S2(=O)=O [Example 118, (1R,4R,5S)-2-amino-4-(5-((Z)-2-(5-(cyclopropylmethoxy)pyrazin-2-yl)-2-fluorovinyl)-2-fluorophenyl)-1-(fluoromethyl)-4-methyl-8-thia-3-azabicyclo[3.2.1]oct-2-ene 8,8-dioxide]
IC50 [1]: 124 nM | IC50 [2]: 706 nM | IC50 [3]: > 400000 nM | IC50 [4]: 35 nM
